Assay results as given in publication PMC12238723, “Phase I Clinical Trial of CVL218, a Novel PARP1/2 Inhibitor, in Patients with Advanced Solid Tumors” (MedComm, 2025).

Tested on: advanced solid tumors
Assay: Antitumor activity, tumor response per RECIST 1.1 and PFS
Assay type: in vivo, patients
Description: This study was a single‐arm, dose‐escalation phase I trial conducted in Sun Yat‐sen University Cancer Center in China. This study assessed CVL218 in patients with histologically or cytologically confirmed advanced solid tumors who were in PD after standard therapeutic regimens or lacked standard treatment options. Inclusion criteria included: age 18–75 years; with at least one measurable and evaluable target lesion per Response Evaluation Criteria in Solid Tumors 1.1 (RECIST 1.1); ECOG performance status of 0 or 1; adequate hematological, renal, cardiac, and hepatic functions and a life expectancy ≥12 weeks. Key exclusion criteria included prior usage of PARP inhibitors; allergic to the research drug or its components; with active, unstable systemic diseases or active, uncontrolled infection; a history of other malignancies within 5 years, and pregnant or lactating women.
Single‐dose and multiple‐dose PK parameters included C max, T max, elimination half‐life (T 1/2), AUC0– t , AUC0–inf, oral clearance (CL/F), and apparent volume of distribution (V z/F) for CVL218. Tumor response was assessed per RECIST 1.1. ORR was defined as proportion of patients with a CR or PR on at least one visit, while DCR was defined as proportion of patients with a CR or PR or SD. PFS was defined as the time from the first dose of either drug to investigator assessed radiologic PD or to death of any cause. PFS would be censored at the time of last tumor assessment.
Subjects who received at least one dose of CVL218 with postadministration safety records were included in safety analysis set. Subjects who received at least one dose of CVL218 with at least one evaluable PK parameter were included in PK analysis set. Per‐protocol set were used for efficacy analysis. Descriptive statistics of safety were presented per CTCAE v5.0. The PK parameters T max and T 1/2 were shown as the median (min, max) and mean ± SD, respectively. A two‐sided p < 0.05 was considered to indicate statistical significance. Statistical analysis was performed by using GraphPad prism 8.0.2 and R‐4.3.3.

CNCc1ccc(-c2cc3cc(F)cc(C(N)=O)c3o2)cc1.Cl [CVL218]
BOR, CR (50 mg BID (N = 1)): 0 n (%) | BOR, PD (50 mg BID (N = 1)): 1 (100) n (%) | BOR, PR (50 mg BID (N = 1)): 0 n (%) | DCR (50 mg BID (N = 1)): 0 (0, 97.50) n (%) (95%CI) | ORR (50 mg BID (N = 1)): 0 (0, 97.5) n (%) (95%CI) | mPFS (50 mg BID (N = 1)): 1.05 months | BOR, CR (100 mg BID (N = 1)): 0 n (%) | BOR, PD (100 mg BID (N = 1)): 1 (100) n (%) | BOR, PR (100 mg BID (N = 1)): 0 n (%) | DCR (100 mg BID (N = 1)): 0 (0, 97.50) n (%) (95%CI) | ORR (100 mg BID (N = 1)): 0 (0, 97.5) n (%) (95%CI) | mPFS (100 mg BID (N = 1)): 1.05 months | BOR, CR (200 mg BID (N = 1)): 0 n (%) | BOR, PD (200 mg BID (N = 1)): 0 n (%) | BOR, PR (200 mg BID (N = 1)): 0 n (%) | DCR (200 mg BID (N = 1)): 1 (100) (2.5, 100.0) n (%) (95%CI) | ORR (200 mg BID (N = 1)): 0 (0, 97.5) n (%) (95%CI) | mPFS (200 mg BID (N = 1)): 1.97 months | BOR, CR (350 mg BID (N = 4)): 0 n (%) | BOR, PD (350 mg BID (N = 4)): 1 (25.0) n (%) | BOR, PR (350 mg BID (N = 4)): 0 n (%) | DCR (350 mg BID (N = 4)): 3 (75.0) (19.4, 99.4) n (%) (95%CI) | ORR (350 mg BID (N = 4)): 0 (0, 60.2) n (%) (95%CI) | mPFS (350 mg BID (N = 4)): 2.34 months | BOR, CR (500 mg BID (N = 4)): 0 n (%) | BOR, PD (500 mg BID (N = 4)): 1 (25.0) n (%) | BOR, PR (500 mg BID (N = 4)): 0 n (%) | DCR (500 mg BID (N = 4)): 3 (75.0) (19.4, 99.4) n (%) (95%CI) | ORR (500 mg BID (N = 4)): 0 (0, 60.2) n (%) (95%CI) | mPFS (500 mg BID (N = 4)): 3.27 months | BOR, CR (600 mg BID (N = 3)): 0 n (%) | BOR, PD (600 mg BID (N = 3)): 3 (100) n (%) | BOR, PR (600 mg BID (N = 3)): 0 n (%) | DCR (600 mg BID (N = 3)): 0 (0, 70.8) n (%) (95%CI) | ORR (600 mg BID (N = 3)): 0 (0, 70.8) n (%) (95%CI) | mPFS (600 mg BID (N = 3)): 1.02 months | BOR, CR (700 mg BID (N = 6)): 0 n (%) | BOR, PD (700 mg BID (N = 6)): 0 n (%) | BOR, PR (700 mg BID (N = 6)): 0 n (%) | DCR (700 mg BID (N = 6)): 6 (100) (54.1, 100.0) n (%) (95%CI) | ORR (700 mg BID (N = 6)): 0 (0, 45.9) n (%) (95%CI) | mPFS (700 mg BID (N = 6)): 2.27 months | BOR, CR (850 mg BID (N = 4)): 0 n (%) | BOR, PD (850 mg BID (N = 4)): 0 n (%) | BOR, PR (850 mg BID (N = 4)): 0 n (%) | DCR (850 mg BID (N = 4)): 4 (100) (39.8, 100.0) n (%) (95%CI) | ORR (850 mg BID (N = 4)): 0 (0, 60.2) n (%) (95%CI) | mPFS (850 mg BID (N = 4)): 2.35 months | mPFS (7 breast cancer patients): 1.71 months | mPFS (7 patients whose best overall response was PD): 1.05 months | mPFS (10 patients on high-level doses (≥700 mg BID)): 2.35 months | mPFS (14 patients on low-level doses (<700 mg BID)): 1.80 months | mPFS (17 patients with SD): 2.79 months | complete response (CR) or partial response (PR) (24 subjects of efficacy analysis set): none of them achieved complete response (CR) or partial response (PR) | BOR, CR (Breast cancer (N=7)): 0 n (%) | BOR, PD (Breast cancer (N=7)): 2 (28.6) n (%) | BOR, PR (Breast cancer (N=7)): 0 n (%) | DCR (Breast cancer (N=7)): 71.4 (29.0, 96.3) n (%) (95%CI) | ORR (Breast cancer (N=7)): 0 (0, 41.0) n (%) (95%CI) | mPFS (Breast cancer (N=7)): 1.71 months | BOR, CR (Lung cancer (N=10)): 0 n (%) | BOR, PD (Lung cancer (N=10)): 4 (40.0) n (%) | BOR, PR (Lung cancer (N=10)): 0 n (%) | ORR (Lung cancer (N=10)): 0 (0, 30.9) n (%) (95%CI) | mPFS (Lung cancer (N=10)): 2.12 months | BOR, CR (Other types (N=7)): 0 n (%) | BOR, PD (Other types (N=7)): 1 (14.3) n (%) | BOR, PR (Other types (N=7)): 0 n (%) | DCR (Other types (N=7)): 85.7 (42.1, 99.6) n (%) (95%CI) | ORR (Other types (N=7)): 0 (0, 41) n (%) (95%CI) | mPFS (Other types (N=7)): 1.91 months | BOR, CR (Overall (N = 24)): 0 n (%) | BOR, PD (Overall (N = 24)): 7 (29.2) n (%) | BOR, PR (Overall (N = 24)): 0 n (%) | DCR (Overall (N = 24)): 17 (70.8) (48.9, 87.4) n (%) (95%CI) | ORR (Overall (N = 24)): 0 (0, 14.3) n (%) (95%CI) | mPFS (Overall (N = 24)): 1.89 months | median PFS (mPFS) (all subjects, PFS events in 24 patients): 1.89 months | DCR (breast cancer): 71.4% | disease control rate (DCR) (high-level doses (≥700 mg BID, n = 10)): 100% | disease control rate (DCR) (low-level dose group (<700 mg BID, n = 14)): 50% | DCR (lung cancer): 60% | DCR (other cancers): 85.7% | disease control rate (DCR) (overall, 24 patients): 70.8% | mPFS (patients with lung cancer): 2.12 months | disease control rate (DCR) (recommended dose (700 mg BID, n = 6)): 100% | mPFS (seven patients with other cancer types): 1.91 months
